Assay results: US20040175353A1, “Cyanoacrylate compositions for prophylactic or therapeutic treatment of diseases manifesting themselves in and/or damage cutaneous tissue” (priority 2001, published 2004)

Test system: HSV-I infection around the mouth
Assay: Initial studies: HSV-I infection around the mouth treated with ethyl cyanoacrylate (Examples 1-3)
Assay type: in vivo, human
Description: Examples 1-3 are initial studies describing three patient groups at different stages of development of HSV-I infection around the mouth which has been treated with ethyl cyanoacrylate (LOCTITE 411, Henkel Loctite Adhesive Ltd.). The infected areas were applied about ⅓ drop of liquid ethyl cyanoacrylate by means of a toothpick and the polymerization was allowed to pass off.
Patient group 1 consisted of three patients without visible symptoms. The group was treated prophylactically as mentioned above under latent HSV-I infection, pronounced prickling and itching in the mucous membrane at the lip being the cause of the treatment.
Patient group 2 consisted of 2 patients with visible blisters in the corner of the mouth due to infection with HSV-I. The group was treated initially for 3 hours, after which the ethyl cyanoacrylate coat with content of virus and tissue was removed. The treatment was repeated 2 times for 24 hours, after which the coat was removed.
Patient group 3 consisted of 4 patients all having large suppurating crusts in a large area around the mouth. The group were initially treated by applying liquid ethyl cyanoacrylate which was allowed to polymerise. The polymer coat with adhering crust was removed immediately after polymerization, and the treatment repeated 4 times for 24 hours.

## C=C(C#N)C(=O)OCC [ethyl cyanoacrylate]
Patient group 1: three patients, latent HSV-I infection without visible symptoms, prophylactic treatment, coat removed after overnight
  development of visible blisters or wounds: no patients in Patient group 1 developed visible blisters or wounds
Patient group 2: 2 patients with visible blisters in corner of mouth, 3 hours, then repeated 2 times for 24 hours
  visible traces, symptoms and scar formation after treatment: no visible traces after the outbreak and both patients were free of symptoms without scar formation
Patient group 3, fourth patient, treated for further 24 hours
  symptoms and scar formation after treatment: subsequently had no symptoms or scar formation
Patient group 3: 4 patients with large suppurating crusts, crust pulled off, treatment repeated 4 times for 24 hours
  symptoms and scar formation after treatment: three patients had no symptoms or scar formation
